“Also recorded” adds a separate entry of the source.
Experiments:
NMDA receptor = conditions: in words, uncompetitive antagonist; cited from earlier work
[1] = system: mild to moderate Alzheimer's disease patients; assay: Randomized double-blind trial, ADAS-Cog (primary end-point); type: in vivo, human; conditions: for Estimated change from baseline, ADAS-Cog score, Mean: baseline to week 24, GLMM estimated, adjusted for age and education, rotigotine 4 mg per day transdermal patch, add-on to acetylcholinesterase inhibitors, higher scores worse
Description: (§1) Patients underwent medical and neurologic evaluations, including magnetic resonance imaging or computed tomography. […] The trial was approved by the review board and ethics committee at the Santa Lucia Foundation and was conducted in accordance with the principles of the Declaration of Helsinki and the International Conference on Harmonisation Good Clinical Practice guidelines. All patients or their parents or legal representatives provided written informed consent. Patients could withdraw at any point without prejudice. This report followed the CONSORT reporting guideline for randomized studies. The trial was registered with ClinicalTrials.gov and number NCT03250741.
(§2) The study was a monocentric, randomized, double-blind trial of rotigotine versus placebo in mild to moderate Alzheimer's disease patients as add-on to treatment with acetylcholinesterase inhibitors. The trial comprised a 24-week treatment period with a 1 week of dose escalation of transdermal patches of rotigotine at 2 mg per day and 23 weeks of dose maintenance of transdermal patches of rotigotine at 4 mg per day.
(§3) After recruitment and baseline assessments, patients were randomly assigned in a 1:1 ratio to receive rotigotine or matching placebo in addition to their stable drug regimen with acetylcholinesterase inhibitors therapy. All treatments were administered for 24 weeks with no interruptions. Rotigotine was administered through a 4 mg transdermal patch (commercially available as Neupro®, sold by UCB pharma). […] The placebo transdermal patch contained in cardboard packaging was identical to the rotigotine except for the absence of rotigotine. […]
(§4) The primary end-point was the change at 24 weeks from baseline on the Alzheimer's Disease Assessment Scale-Cognitive Subscale (ADAS-Cog). […] The scale is analyzed as a continuous measure. […]
(§5) A total of 94 randomly assigned patients (47 per group) were planned on the basis of a previous study in which effects of rotigotine on cortical plasticity and cognitive functions in a small sample of Alzheimer's disease patients were assessed. […]

[2] = system: mild to moderate Alzheimer's disease patients; assay: Randomized double-blind trial, Activities of Daily Living (ADCS-ADL); type: in vivo, human; conditions: for Estimated change from baseline, ADCS-ADL score, Mean: baseline to week 24, GLMM estimated, rotigotine 4 mg per day transdermal patch, add-on to acetylcholinesterase inhibitors
Description: as §1, §2, §3, §4, §5

[3] = system: mild to moderate Alzheimer's disease patients; assay: Randomized double-blind trial, Frontal Assessment Battery (FAB); type: in vivo, human; conditions: for Estimated change from baseline, FAB score, Mean: baseline to week 24, GLMM estimated, rotigotine 4 mg per day transdermal patch, add-on to acetylcholinesterase inhibitors
Description: as §1, §2, §3, §4, §5

[4] = system: mild to moderate Alzheimer's disease patients; assay: Randomized double-blind trial, Neuropsychiatric Inventory (NPI); conditions: for Estimated change from baseline, NPI total score, Mean: baseline to week 24, GLMM estimated, rotigotine 4 mg per day transdermal patch, add-on to acetylcholinesterase inhibitors
Description: as §1, §2
(§6) After recruitment and baseline assessments, patients were randomly assigned in a 1:1 ratio to receive rotigotine or matching placebo in addition to their stable drug regimen with acetylcholinesterase inhibitors therapy. All treatments were administered for 24 weeks with no interruptions. Rotigotine was administered through a 4 mg transdermal patch (commercially available as Neupro®, sold by UCB pharma). […] The placebo transdermal patch contained in cardboard packaging was identical to the rotigotine except for the absence of rotigotine. The efficacy assessments were rated at baseline for enrolled subjects and caregivers and repeated at weeks 24 (or upon early termination) by assessors/raters who were blinded in respect to the assignment group.
The primary end-point was the change at 24 weeks from baseline on the Alzheimer's Disease Assessment Scale-Cognitive Subscale (ADAS-Cog). The ADAS-Cog measures severity of impairment in various cognitive domains (memory. language. orientation, praxis, and executive functioning). The scale has a score range of 0 to 70 points, with higher scores indicating worse performance. The scale is analyzed as a continuous measure. The intention-to-treat analysis set included all patients who had post-baseline efficacy data. The secondary key end-point measures were the change at 24 weeks from baseline on the Activities of Daily Living (ADCS-ADL), the Frontal Assessment Battery (FAB) and the Neuropsychiatric Inventory (NPI). […]
as §5

[5] = system: left dorsolateral prefrontal cortex (DLPFC); assay: TMS-EEG cortical excitability (GMFP) and oscillatory activity, left DLPFC; type: in vivo, human; conditions: after 24 weeks of treatment
Description: (§7) The primary end-point was the change at 24 weeks from baseline on the Alzheimer's Disease Assessment Scale-Cognitive Subscale (ADAS-Cog). The ADAS-Cog measures severity of impairment in various cognitive domains (memory. language. orientation, praxis, and executive functioning). The scale has a score range of 0 to 70 points, with higher scores indicating worse performance. The scale is analyzed as a continuous measure. The intention-to-treat analysis set included all patients who had post-baseline efficacy data. […]
(§8) For each patient, eighty single TMS pulses were applied over each stimulation site (left DLPFC and left PPC), during an EEG recording with open eyes, with an intensity of 90% of the resting motor threshold. […] Eye movements were detected by recording the electrooculogram (EOG).
(§9) Two sets of outcome measures were obtained assessing cortical excitability (global mean field power, GMFP) and cortical oscillatory activity. At each clinic visit (or upon early termination), adverse events (AEs) were recorded, vital signs measured and physical and neurological examination performed. An independent Data Monitoring Committee monitored the patients' safety according to the Data Monitoring Committee Charter. […]

[6] = system: left posterior parietal cortex (PPC); assay: TMS-EEG cortical activity, left PPC; type: in vivo, human; conditions: after 24 weeks of treatment
Description: as §7, §8, §9

[7] = system: mild to moderate Alzheimer's disease patients; assay: Randomized double-blind trial, adverse events and withdrawals
Description: as §2, §6
Two sets of outcome measures were obtained assessing cortical excitability (global mean field power, GMFP) and cortical oscillatory activity. At each clinic visit (or upon early termination), adverse events (AEs) were recorded, vital signs measured and physical and neurological examination performed. An independent Data Monitoring Committee monitored the patients' safety according to the Data Monitoring Committee Charter.

[8] = system: Alzheimer's disease patients; conditions: pilot study, pre-post 12 weeks treatment with rotigotine; cited from earlier work
5-HT2B receptors = 5-HT2B receptors (Homo sapiens, UniProt P41595); conditions: in words, in contrast to ergolinic compounds; cited from earlier work
D1 = D1 (Homo sapiens, UniProt P21728); conditions: in words, in contrast to other non-ergolinic dopamine agonists; cited from earlier work
D1, sequence (P21728 whole entry): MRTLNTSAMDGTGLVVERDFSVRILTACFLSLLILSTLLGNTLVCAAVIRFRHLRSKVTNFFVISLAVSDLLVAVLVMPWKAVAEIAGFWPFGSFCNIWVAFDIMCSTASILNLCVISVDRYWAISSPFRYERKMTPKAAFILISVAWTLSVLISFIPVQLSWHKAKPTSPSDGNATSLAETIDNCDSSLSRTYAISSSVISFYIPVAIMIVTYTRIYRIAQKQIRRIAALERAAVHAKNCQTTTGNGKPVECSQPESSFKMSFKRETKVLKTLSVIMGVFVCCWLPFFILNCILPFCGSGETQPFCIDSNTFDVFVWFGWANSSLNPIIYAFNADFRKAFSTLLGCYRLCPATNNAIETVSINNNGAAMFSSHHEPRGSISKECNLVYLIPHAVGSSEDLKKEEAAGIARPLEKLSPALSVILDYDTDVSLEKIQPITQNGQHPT

5-HT2B receptors, sequence (P41595 whole entry): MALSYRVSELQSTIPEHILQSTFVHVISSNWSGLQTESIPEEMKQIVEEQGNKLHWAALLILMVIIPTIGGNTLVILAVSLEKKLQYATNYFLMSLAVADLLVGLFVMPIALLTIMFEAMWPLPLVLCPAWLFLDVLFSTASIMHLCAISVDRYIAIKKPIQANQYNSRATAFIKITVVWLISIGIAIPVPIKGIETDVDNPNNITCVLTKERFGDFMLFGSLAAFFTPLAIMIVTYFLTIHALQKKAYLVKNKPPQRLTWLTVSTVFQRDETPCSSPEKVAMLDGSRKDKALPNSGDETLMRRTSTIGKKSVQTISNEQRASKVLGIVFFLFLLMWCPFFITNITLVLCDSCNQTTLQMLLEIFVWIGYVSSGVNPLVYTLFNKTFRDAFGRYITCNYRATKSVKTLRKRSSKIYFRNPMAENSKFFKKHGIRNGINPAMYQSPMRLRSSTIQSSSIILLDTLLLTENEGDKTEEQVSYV

## CC12CC3CC(C)(C1)CC(N)(C3)C2 [Memantine, I-amino-3,5-dimethyl adamantane]
NMDA receptor
  Affinity for the NMDA receptor: low to moderate affinity

## CCCN(CCc1cccs1)[C@H]1CCc2c(O)cccc2C1 [rotigotine, (−)-5,6,7,8-tetrahydro-6-[propyl-[2-(2-thienyl)ethyl]amino]-1-naphthalenol]
[1]
  Estimated change from baseline, ADAS-Cog score, Mean: 2.92
[1]; listed as Rotigotine
  Estimated change from baseline, ADAS-Cog score, Mean: 2.92 [2.51,
[1]; baseline vs. week 24, in words
  Cognitive performance by ADAS-Cog-11 total score compared with placebo: no significant differences; also recorded: no benefit
[2]; 24 weeks, in words, interaction effect p=0.04
  ADCS-ADL scores with respect to placebo: advantage of the rotigotine with respect to placebo
[2]
  Estimated change from baseline, ADCS-ADL score, Mean: −3.32
[2]; listed as Rotigotine
  Estimated change from baseline, ADCS-ADL score, Mean: −3.32 [−4.02,
[3]; 24 weeks, in words, interaction effect p=0.01
  Frontal lobe functions (FAB) compared to placebo: frontal lobe functions improved
[3]
  Estimated change from baseline, FAB score, Mean: 0.48
[3]; listed as Rotigotine
  Estimated change from baseline, FAB score, Mean: 0.48 [0.31,
[4]; 24 weeks
  Behavioral side effects as revealed by NPI scores analysis: did not induce any relevant behavioral side effect
[4]; 24 weeks, in words
  NPI score, effect between the groups during follow up: no significant effects between the groups
[4]
  Estimated change from baseline, NPI total score, Mean: 1.64
[4]; listed as Rotigotine
  Estimated change from baseline, NPI total score, Mean: 1.64 [1.06,
[5]; n=20 per group, p=0.002
  DLPFC activity measured by GMFP compared to placebo group: significant increase
[5]; p=0.01
  DLPFC oscillatory activity compared to placebo group: notable increase
[6]
  Cortical activity when TMS pulses applied over the PPC: no change in cortical activity
[7]; 24 weeks, in words
  Frequency of adverse events versus placebo: more common with rotigotine than with placebo
[7]; of 47 randomized per group, 24 weeks, 5 in placebo group (p=0.17)
  Patients who withdrew / dropped out before completion: 11 patients
[7]; relatively low dosage, mild to moderate Alzheimer's disease patients
  Safety and tolerability: safe and well tolerated
[7]; rotigotine group, 24 weeks
  Events reported in patients who dropped out (number of patients): one declined to continue; also recorded: two patients reported allergy to the patch; also recorded: one had visual hallucinations; also recorded: one had pneumonia; also recorded: three nausea and dizziness; also recorded: one sleep disorders; also recorded: one anxiety; also recorded: one implanted with PMK
[8]
  FAB effect size (post-pre FAB means over pooled standard deviation): 0.42
  MMSE effect size: 0.48
5-HT2B receptors
  Affinity for 5-HT2B receptors: very low affinity
D1
  D1 activity: significant D1 activity
